The text below walks through data of patent US8703799B2, “Non-competitive NMDA receptor antagonists” (priority 2006, dated 2014).

“And” between values parts separate entries of the source, which are not always exact repeats. Equal values may be shown once.

For series [1], the system named is MES-induced seizures. As to the kind of experiment: Maximal electroshock (MES) test for anti-convulsive activity in mice. Set-up: key: (+) means MES test protection occurred at 100 mg/kg delivered i.p. in mice; (−) means that no activity was observed. The conditions noted are these: i.p., 100 mg/kg. Type of series: in vivo. The procedure:
The maximal electroshock (MES) test was used to initially screen compounds for anti-convulsive activity in mice.
In the MES test, 50 mA of […] alternating current was delivered to 19-25 g mice for 2 s by a corneal electrode which had been primed with an electrolyte solution containing an anesthetic agent (0.5% tetracaine HCl). Mice were tested at various intervals following doses of 30, 100 or 300 mg/kg of test compound given by i.p. injection in 0.01 ml/g of the aqueous carrier. Animals are considered protected from MES-induced seizures upon abolition of hindlimb tonic extensor component of the seizure (Swinyard et al. 1989; White et al. 1995a; White et al. 1995b).
(§1) For activity, (+) means MES test protection occurred at 100 mg/kg delivered i.p. in mice and (−) means that no activity was observed. For toxicity, (+++) means some animals died at 100 mg/kg and all animals died at 300 mg/kg; (++) means that some toxicity observed at 100 mg/kg and all animals died at 300 mg/kg; and (−) means no toxicity observed at 100 mg/kg and some observed at 300 mg/kg but no animals died at 300 mg/kg.
A general note: In the maximal electroshock model the usual endpoint is tonic extension of the hind limbs.

In series [2] the test system is mice. Kind of series: Acute toxicity (rotorod minimal motor impairment, overt signs, death) in mice. It is filed as in vivo. Set-up: key: (+++) means some animals died at 100 mg/kg and all animals died at 300 mg/kg; (++) means that some toxicity observed at 100 mg/kg and all animals died at 300 mg/kg; (−) means no toxicity observed at 100 mg/kg and some observed at 300 mg/kg but no animals died at 300 mg/kg. The conditions noted are these: i.p., 100 and 300 mg/kg. The procedure:
Acute toxicity was assessed by monitoring animals for overt signs of impaired neurological or muscular function. The rotorod test measures minimal motor impairment (MMI) by placing mice on a rod rotated a 6 rpm. A compound is considered toxic if the mice fall off the rod three times during a 1-min period. Additionally, mice were observed and noted for circular or zigzag gaits, abnormal body posture and spread of the legs, tremors, hyperactivity, lack of exploratory behavior, somnolence, stupor, catalepsy, loss of placing response and change in muscle tone.
as §1

Series [3] in a line: Aqueous solubility of fumarate salt. Type of series: physicochemical. The settings on record: read-out: solubility in aqueous solution.
Series [4] concerns electrically-induced convulsions. As to the kind of experiment: Anti-convulsive ED50 in rats, oral (electrically-induced convulsions). It is filed as in vivo. The conditions noted are these: delivered orally, amelioration of electrically-induced convulsions. How it is done:
Suitable dosages for the compounds and methods disclosed herein range from about 0.05, 0.1, 0.2 or 0.5 mg/kg body weight to about 100 or 200 mg/kg body weight. In certain embodiments, dosages range from about 0.5 to 1 mg/kg body weight to about 100 mg/kg body weight. In other embodiments doses range from about 10 to about 50 mg/kg body weight. Performance of studies to determine an optimal dosage for a particular condition using a particular compound is well within the level of ordinary skill in this field. […] For example, the ED50 of bicyclo,4-F-PCP for alleviation, treatment, or prevention of Alzheimer's and Parkinson's disease would be expected to be on the order of 3 mg/kg.
Compound 4 (Bicyclo,4-F-PCP) was tested in rats using 30 mg/kg delivered orally.

The subject of series [5] is NMDA receptors (MK-801 binding site). As to the kind of experiment: MK-801 (dizocilpine) binding site assay. The settings on record: rat forebrain membrane, 20 mM HEPES pH 7.5, 25° C., 90 min; FIG. 3. How it is done: NMDA receptors were isolated from rat forebrain membrane (Bmax=830 fmol/mg protein) and incubated with ^3H-labeled MK-801 maleate (15-30 Ci/mmol) in 20 mM HEPES (pH 7.5) buffer at 25° C. for 90 min to yield labeled receptors. MK-801 is a known non-competitive antagonist of NMDA receptor.
Selected concentrations of non-labeled bicyclo,4-F-PCP were incubated with the labeled receptors in 20 mM HEPES (pH 7.5) buffer at 25° C. for 90 min. At the conclusion of the assay, the reaction mixture was filtered immediately on glass filters by vacuum filtration and washed twice with buffer solutions. The radioactivity trapped on the filters was measured, compared with controls, and the ki and IC50 values of bicyclo,4-F-PCP were calculated.

A short description of series [6]: pKa determination. Type of series: physicochemical.
Series [7] relates to NMDA receptors (competitive site, CGP 39653). Kind of series: NMDA agonist binding site assay ([3H]CGP 39653). The settings on record: rat forebrain membrane, 50 mM TRIS-acetate pH 7.4, 0-4° C., 60 min; FIG. 4. The procedure: NMDA receptors were isolated from rat forebrain membrane (Bmax=0.77 pmol/mg tissue) and incubated with ^3H-labeled CGP 39653 (15-30 Ci/mmol) in 50 mM TRIS-acetate (pH 7.4) buffer at 0-4° C. for 60 min to yield labeled receptors. CGP 39653 is a known competitive antagonist of NMDA receptor.
Selected concentrations of non-labeled bicyclo,4-F-PCP were incubated with the labeled receptors in 50 mM TRIS-Acetate (pH 7.4) buffer at 0-4° C. for 60 min. At the conclusion of the assay, the reaction mixture was immediately filtered using glass filters and vacuum filtration, washing twice with buffer solutions. The radioactivity trapped on the filters was measured, compared with controls, and the ki and IC50 values of bicyclo,4-F-PCP calculated.

Series [8] can be described thus: log P determination. It is filed as physicochemical. The settings on record: measure of lipophilicity.

`NC1(c2ccc(F)cc2)CC2CCC1C2` (racemic) [Compound 2, (±)-2-(4-fluorophenyl)-bicyclo[2.2.1]hept-2-ylamine]: in series [1], the “Activity (MES test protection)” value is on record as “+”. Further, the Toxicity entry in series [2] is “++”.
As usually defined, the solubility is how much of the substance goes into solution per volume. The term ED50 denotes the midpoint of the dose-response relation. By pKa is commonly meant the negative logarithm of the acid dissociation constant. By logP is commonly meant the decadic logarithm of the partition coefficient of the neutral form, usually between octanol and water. On to `Fc1ccc(C2(N3CCCCC3)CC3CCC2C3)cc1` (racemic) [Compound 4, (±) 1-[2-(4-fluorophenyl)-bicyclo[2.2.1]hept-2-yl]-piperidine], for which the solubility in series [3] is 36600 µM and 14200 µg/mL. Moreover, the 50% effective dose (ED50) in series [4] (Rattus norvegicus, po, read-out: ED50 (effective dose)) was determined as 28.3 mg/kg. Moreover, the “ED50 (effective dose)” value in series [4] (listed as bicyclo,4-F-PCP) is on record as 28 mg/kg. In series [5], the “displacement of [3H] MK-801 maleate bound to NMDA receptors” value is given as “can displace”. This compound registered a pKa in series [6] of 8.87. In addition, the “displacement of CGP 39653 from NMDA receptors” value in series [7] is “does not displace”. In addition, in series [1], the “Activity (MES test protection)” value was “+”. In addition, in series [8], the log partition coefficient (logP) was found to be 2.07. For the same compound, in series [2], the Toxicity result is “−”.
In the case of `NC1(c2ccccc2F)CCCCCC1` [cycloheptyl 2-F amine], the “Activity (MES test protection)” value in series [1] is “+”. In addition, the Toxicity result in series [2] is on record as “++”.
For the compound `Fc1ccc(C2(N3CCCCC3)CCCCCC2)cc1` [cycloheptyl 4-F piperidine], the “Activity (MES test protection)” value in series [1] is listed as “+”. Also, the Toxicity entry in series [2] is listed as “+++”.
